Data reported in ChEMBL document CHEMBL4184210, “Optimization of novel monobactams with activity against carbapenem-resistant Enterobacteriaceae - Identification of LYS228” (Bioorg Med Chem Lett, 2018).

Columns and labels:
[1] = system: Escherichia coli; assay: microbe, parasite or virus in culture
Description: Antimicrobial activity against Escherichia coli expressing beta-lactamase CTXM-3 by CLSI broth microdilution method

[2] = system: Escherichia coli; assay: microbe, parasite or virus in culture; remark: listed apart in the source
Description: Antimicrobial activity against Escherichia coli expressing beta-lactamase Oxa-23 by CLSI broth microdilution method

[3] = Chemical stability in pH 7.4 potassium phosphate buffer assessed as half life for compound hydrolysis at 37 degC by UPLC and mass spectrometry; assay type: physicochemical
[4] = system: Escherichia coli; assay: microbe, parasite or virus in culture; remark: listed apart in the source
Description: Antimicrobial activity against Escherichia coli expressing beta-lactamase CTXM-15 by CLSI broth microdilution method

[5] = system: Escherichia coli; assay: microbe, parasite or virus in culture; remark: listed apart in the source
Description: Antimicrobial activity against Escherichia coli expressing beta-lactamase PER-2 by CLSI broth microdilution method

[6] = system: Escherichia coli; assay: microbe, parasite or virus in culture; remark: listed apart in the source
Description: Antimicrobial activity against Escherichia coli expressing beta-lactamase SME-1 by CLSI broth microdilution method

[7] = system: Escherichia coli; assay: microbe, parasite or virus in culture; remark: listed apart in the source
Description: Antimicrobial activity against Escherichia coli expressing beta-lactamase Oxa-40 by CLSI broth microdilution method

[8] = system: Escherichia coli; assay: microbe, parasite or virus in culture; remark: listed apart in the source
Description: Antimicrobial activity against Escherichia coli expressing beta-lactamase TEM-47 by CLSI broth microdilution method

[9] = system: Escherichia coli; assay: Antimicrobial activity against Escherichia coli expressing beta-lactamase VEB-1 by CLSI broth microdilution method; assay type: functional
[10] = system: Escherichia coli; assay: microbe, parasite or virus in culture; remark: listed apart in the source
Description: Antimicrobial activity against Escherichia coli expressing beta-lactamase DHA by CLSI broth microdilution method

[11] = system: Escherichia coli; assay: microbe, parasite or virus in culture; remark: listed apart in the source
Description: Antimicrobial activity against Escherichia coli expressing beta-lactamase TEM-16 by CLSI broth microdilution method

[12] = system: Escherichia coli; assay: microbe, parasite or virus in culture; remark: listed apart in the source
Description: Antimicrobial activity against Escherichia coli expressing beta-lactamase AmpC by CLSI broth microdilution method

[13] = system: Escherichia coli; assay: Antimicrobial activity against Escherichia coli expressing beta-lactamase NDM-1 by CLSI broth microdilution method; assay type: functional
[14] = system: Escherichia coli; assay: microbe, parasite or virus in culture; remark: listed apart in the source
Description: Antimicrobial activity against Escherichia coli expressing beta-lactamase Oxa-18 by CLSI broth microdilution method

[15] = system: Escherichia coli; assay: microbe, parasite or virus in culture; remark: listed apart in the source
Description: Antimicrobial activity against Escherichia coli expressing beta-lactamase KPC-8 by CLSI broth microdilution method

[16] = system: Escherichia coli; assay: Antimicrobial activity against Escherichia coli expressing beta-lactamase NDM-5 by CLSI broth microdilution method; assay type: functional
[17] = system: Escherichia coli; assay: microbe, parasite or virus in culture; remark: listed apart in the source
Description: Antimicrobial activity against Escherichia coli expressing beta-lactamase Oxa-146 by CLSI broth microdilution method

[18] = target: T1, Beta-lactamase SHV-12 (Escherichia coli, UniProt Q7X574); assay: Stability assessed as assessed as Escherichia coli beta-lactamase SHV-12-mediated compound hydrolysis by measuring molar enthalpy of hydrolysis at 1 mM by isothermal titration calorimetry; assay type: ADME; conditions: 1000 µM
T1 sequence (Q7X574 whole entry): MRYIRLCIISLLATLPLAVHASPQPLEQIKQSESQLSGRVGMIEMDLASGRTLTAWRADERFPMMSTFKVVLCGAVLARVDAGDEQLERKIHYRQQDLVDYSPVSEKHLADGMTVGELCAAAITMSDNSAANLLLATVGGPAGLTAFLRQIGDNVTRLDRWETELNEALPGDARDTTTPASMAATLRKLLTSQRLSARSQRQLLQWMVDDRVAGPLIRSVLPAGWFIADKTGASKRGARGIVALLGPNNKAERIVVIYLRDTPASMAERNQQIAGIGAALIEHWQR

[19] = system: Escherichia coli; assay: microbe, parasite or virus in culture; remark: listed apart in the source
Description: Antimicrobial activity against Escherichia coli expressing beta-lactamase IMI-1 by CLSI broth microdilution method

[20] = system: Escherichia coli; assay: microbe, parasite or virus in culture; remark: listed apart in the source
Description: Antimicrobial activity against Escherichia coli expressing beta-lactamase PER-1 by CLSI broth microdilution method

[21] = system: Escherichia coli; assay: microbe, parasite or virus in culture; remark: listed apart in the source
Description: Antimicrobial activity against wild type Escherichia coli by CLSI broth microdilution method

[22] = system: Escherichia coli; assay: microbe, parasite or virus in culture; remark: listed apart in the source
Description: Antimicrobial activity against Escherichia coli expressing beta-lactamase SPM-1 by CLSI broth microdilution method

[23] = system: Escherichia coli; assay: microbe, parasite or virus in culture; remark: listed apart in the source
Description: Antimicrobial activity against Escherichia coli expressing beta-lactamase TEM-121 by CLSI broth microdilution method

[24] = system: Escherichia coli; assay: microbe, parasite or virus in culture; remark: listed apart in the source
Description: Antimicrobial activity against Escherichia coli expressing beta-lactamase KPC-4 by CLSI broth microdilution method

[25] = Stability assessed as assessed as Escherichia coli beta-lactamase CTX-M-15-mediated compound hydrolysis by measuring molar enthalpy of hydrolysis at 1 mM by isothermal titration calorimetry; assay type: ADME; conditions: 1000 µM
[26] = system: Escherichia coli; assay: microbe, parasite or virus in culture; remark: listed apart in the source
Description: Antimicrobial activity against Escherichia coli expressing beta-lactamase VEB-4 by CLSI broth microdilution method

[27] = system: Escherichia coli; assay: microbe, parasite or virus in culture; remark: listed apart in the source
Description: Antimicrobial activity against Escherichia coli expressing beta-lactamase TEM-10 by CLSI broth microdilution method

[28] = system: Escherichia coli; assay: microbe, parasite or virus in culture; remark: listed apart in the source
Description: Antimicrobial activity against Escherichia coli expressing beta-lactamase IMP-1 by CLSI broth microdilution method

[29] = system: Escherichia coli; assay: microbe, parasite or virus in culture; remark: listed apart in the source
Description: Antimicrobial activity against Escherichia coli expressing beta-lactamase CMY-2 by CLSI broth microdilution method

[30] = system: Escherichia coli; assay: microbe, parasite or virus in culture; remark: listed apart in the source
Description: Antimicrobial activity against Escherichia coli expressing beta-lactamase Oxa-48 by CLSI broth microdilution method

[31] = system: Escherichia coli; assay: microbe, parasite or virus in culture; remark: listed apart in the source
Description: Antimicrobial activity against Escherichia coli expressing beta-lactamase GES-1 by CLSI broth microdilution method

[32] = system: Escherichia coli; assay: microbe, parasite or virus in culture; remark: listed apart in the source
Description: Antimicrobial activity against Escherichia coli expressing beta-lactamase VIM-1 by CLSI broth microdilution method

[33] = system: Escherichia coli; assay: microbe, parasite or virus in culture; remark: listed apart in the source
Description: Antimicrobial activity against Escherichia coli expressing beta-lactamase NMC-A by CLSI broth microdilution method

[34] = system: Escherichia coli; assay: microbe, parasite or virus in culture; remark: listed apart in the source
Description: Antimicrobial activity against Escherichia coli expressing beta-lactamase SHV-12 by CLSI broth microdilution method

[35] = system: Escherichia coli; assay: microbe, parasite or virus in culture; remark: listed apart in the source
Description: Antimicrobial activity against Escherichia coli expressing beta-lactamase MIR-1 by CLSI broth microdilution method

[36] = system: Escherichia coli; assay: microbe, parasite or virus in culture; remark: listed apart in the source
Description: Antimicrobial activity against Escherichia coli expressing beta-lactamase VEB-7 by CLSI broth microdilution method

[37] = system: Escherichia coli; assay: microbe, parasite or virus in culture; remark: listed apart in the source
Description: Antimicrobial activity against Escherichia coli expressing beta-lactamase Oxa-51 by CLSI broth microdilution method

[38] = system: Escherichia coli; assay: microbe, parasite or virus in culture; remark: listed apart in the source
Description: Antimicrobial activity against Escherichia coli expressing beta-lactamase TEM-24 by CLSI broth microdilution method

[39] = system: Escherichia coli; assay: microbe, parasite or virus in culture; remark: listed apart in the source
Description: Antimicrobial activity against Escherichia coli expressing beta-lactamase Oxa-225 by CLSI broth microdilution method

[40] = system: Escherichia coli; assay: microbe, parasite or virus in culture; remark: listed apart in the source
Description: Antimicrobial activity against Escherichia coli expressing beta-lactamase KPC-3 by CLSI broth microdilution method

[41] = system: Escherichia coli; assay: Antimicrobial activity against Escherichia coli expressing beta-lactamase KPC-2 by CLSI broth microdilution method; assay type: functional
[42] = system: Escherichia coli; assay: microbe, parasite or virus in culture; remark: listed apart in the source
Description: Antimicrobial activity against Escherichia coli expressing beta-lactamase PER-4 by CLSI broth microdilution method

[43] = system: Escherichia coli; assay: microbe, parasite or virus in culture; remark: listed apart in the source
Description: Antimicrobial activity against Escherichia coli expressing beta-lactamase P99 by CLSI broth microdilution method

[44] = system: Escherichia coli; assay: microbe, parasite or virus in culture; remark: listed apart in the source
Description: Antimicrobial activity against Escherichia coli expressing beta-lactamase Oxa-10 by CLSI broth microdilution method

[45] = Stability assessed as assessed as Escherichia coli beta-lactamase KPC-2-mediated compound hydrolysis by measuring molar enthalpy of hydrolysis at 1 mM by isothermal titration calorimetry; assay type: ADME; conditions: 1000 µM
[46] = system: Escherichia coli; assay: microbe, parasite or virus in culture; remark: listed apart in the source
Description: Antimicrobial activity against Escherichia coli expressing beta-lactamase GIM-1 by CLSI broth microdilution method

[47] = system: Escherichia coli; assay: microbe, parasite or virus in culture; remark: listed apart in the source
Description: Antimicrobial activity against Escherichia coli expressing beta-lactamase Oxa-181 by CLSI broth microdilution method

[48] = system: Escherichia coli; assay: microbe, parasite or virus in culture; remark: listed apart in the source
Description: Antimicrobial activity against Escherichia coli expressing beta-lactamase Oxa-160 by CLSI broth microdilution method

[49] = target: GABA A receptor alpha-2/beta-2/gamma-2 (Homo sapiens) (UniProt P47870+P18507+P47869); assay: Inhibition of recombinant human GABA A alpha2beta2gamma2 receptor expressed in CHO-K1 cells at 300 uM incubated at room temperature for 15 mins before the GABA addition fluorescence spectrometry; assay type: cell-based
[50] = system: Enterobacteriaceae; assay: Antimicrobial activity against ESBL, KPC and MBL producing Enterobacteriaceae by CLSI broth microdilution method; assay type: functional
[51] = system: Escherichia coli; assay: Antimicrobial activity against Escherichia coli expressing beta-lactamase TEM-1 by CLSI broth microdilution method; assay type: functional
[52] = system: Pseudomonas aeruginosa; assay: Antimicrobial activity against Pseudomonas aeruginosa expressing delta-mexB/mexXY/delta-ampDh2/ delta-ampD by CLSI broth microdilution method; assay type: functional
[53] = system: Pseudomonas aeruginosa; assay: Antimicrobial activity against Pseudomonas aeruginosa ATCC 27853 by CLSI broth microdilution method; assay type: functional
[54] = system: Pseudomonas aeruginosa; assay: Antimicrobial activity against Pseudomonas aeruginosa expressing nalB/delta-mexXY/delta-mexCDoprJ/delta-ampC by CLSI broth microdilution method; assay type: functional
[55] = system: Pseudomonas aeruginosa; assay: Antimicrobial activity against Pseudomonas aeruginosa expressing delta-mexB/delta-mexXY/delta-mexCD and delta-ampC mutant by CLSI broth microdilution method; assay type: functional
[56] = system: Mus musculus; assay: Toxicity in CD1 mouse assessed as induction of convulsion at 100 mg/kg, icv measured 1 hr after post dose; assay type: organism-based; conditions: in vivo, icv_or_intrathecal

NC(=O)OC[C@@H]1[C@H](NC(=O)/C(=N\OCC(=O)O)c2csc(N)n2)C(=O)N1S(=O)(=O)O [CARUMONAM]
> 2000 h: half-life [3]
8 µg/mL: MIC [35]
32 µg/mL: MIC [24]
Unstable: Stability [18]
4 µg/mL: MIC [12] | MIC [15] | MIC [27] | MIC [29] | MIC [38] | MIC [43]
16 µg/mL: MIC [10] | MIC [14]
2 µg/mL: MIC [17]
0.5 µg/mL: MIC [8] | MIC [11] | MIC [23] | MIC [44]
64 µg/mL: MIC [26] | MIC [42]
1 µg/mL: MIC [39] | MIC [41] | MIC [48]
0.06 to 0.125 µg/mL: MIC [21]
> 64 µg/mL: MIC [5] | MIC [9] | MIC [20] | MIC [34] | MIC [36]
Stable: Stability [25] | Stability [45]
0.125 µg/mL: MIC [1] | MIC [2] | MIC [4] | MIC [6] | MIC [7] | MIC [13] | MIC [16] | MIC [19] | MIC [22] | MIC [28] | MIC [30] | MIC [31] | MIC [32] | MIC [33] | MIC [37] | MIC [40] | MIC [46] | MIC [47]

C[C@@H](O)[C@H]1C(=O)N2C(C(=O)O)=C(SCCNC=N)C[C@H]12 [IMIPENEM ANHYDROUS]
1 µg/mL: MIC [2] | MIC [7] | MIC [22] | MIC [24] | MIC [30] | MIC [39] | MIC [46] | MIC [47] | MIC [48]
16 µg/mL: MIC [13] | MIC [16]
0.5 µg/mL: MIC [35]
0.125 µg/mL: MIC [9]
2 µg/mL: MIC [15] | MIC [19] | MIC [28] | MIC [32] | MIC [33] | MIC [40]
2 to 16 µg/mL: MIC [41]
15%: inhibition [49]
0.25 µg/mL: MIC [1] | MIC [5] | MIC [11] | MIC [12] | MIC [14] | MIC [17] | MIC [20] | MIC [23] | MIC [26] | MIC [27] | MIC [29] | MIC [31] | MIC [34] | MIC [36] | MIC [37] | MIC [38] | MIC [42] | MIC [43] | MIC [44]

C[C@@H](O)[C@H]1C(=O)N2C(C(=O)O)=C(S[C@@H]3CN[C@H](C(=O)N(C)C)C3)[C@H](C)[C@H]12 [MEROPENEM]
64 µg/mL: MIC [16]
≤ 0.06 µg/mL: MIC [1] | MIC [5] | MIC [8] | MIC [9] | MIC [10] | MIC [11] | MIC [14] | MIC [20] | MIC [23] | MIC [26] | MIC [29] | MIC [31] | MIC [35] | MIC [36] | MIC [38] | MIC [51] | MIC [42] | MIC [43] | MIC [44]
8 µg/mL: MIC [22] | MIC [28]
78 h: half-life [3]
2 µg/mL: MIC [15] | MIC [33] | MIC [40] | MIC [41]
32 µg/mL: MIC90 [50]
1 µg/mL: MIC [7] | MIC [19] | MIC [24] | MIC [30] | MIC [46]
16 to 64 µg/mL: MIC [13]
0.125 µg/mL: MIC [2] | MIC [17] | MIC [39]
0.25 µg/mL: MIC [48]
≤ 0.015 µg/mL: MIC [4] | MIC [12] | MIC [21] | MIC [34] | MIC [37]
4 µg/mL: MIC [6] | MIC [32]
0.5 µg/mL: MIC [47]

N=C(NC1CCNCC1)c1ccc(OC[C@H](O/N=C(\C(=O)N[C@@H]2C(=O)N(S(=O)(=O)O)[C@@H]2Cn2cncn2)c2csc(N)n2)C(=O)O)cc1 (stereo in doubt)
> 64 µg/mL: MIC [5] | MIC [20] | MIC [42]
1 µg/mL: MIC [10] | MIC [17] | MIC [23] | MIC [24] | MIC [27] | MIC [55]
0.25 µg/mL: MIC [7] | MIC [11] | MIC [12] | MIC [31] | MIC [35] | MIC [39] | MIC [40] | MIC [51] | MIC [47] | MIC [48]
0.5 µg/mL: MIC [15] | MIC [16] | MIC [29] | MIC [34] | MIC [38] | MIC [43]
8 µg/mL: MIC [54]
64 µg/mL: MIC [9] | MIC [26] | MIC [36]
32 µg/mL: MIC [14]
2 µg/mL: MIC [53]
35%: inhibition [49]
16 µg/mL: MIC [52]
0.125 µg/mL: MIC [1] | MIC [2] | MIC [4] | MIC [6] | MIC [8] | MIC [13] | MIC [19] | MIC [21] | MIC [22] | MIC [28] | MIC [30] | MIC [32] | MIC [33] | MIC [37] | MIC [41] | MIC [44] | MIC [46]

C[C@@H](O)[C@H]1C(=O)N2C(C(=O)O)=C(S[C@@H]3CN[C@H](CNS(N)(=O)=O)C3)[C@H](C)[C@H]12 [DORIPENEM]
0%: inhibition [49]
Non-Toxic: Activity [56]
